PubChem BioAssay (NCI)
Values joined by “and” are separate entries in the source; they are usually repeats but may differ in a detail not shown here. Identical values can stand only once.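 Step 1: Grow cells in 96-well plates. Step 2: Expose to compound for 48 hours at 5 concentrations. Step 3: Interpolate endpoints linearly; if unreached, use highest concentration. At the GI50, growth is halved. TGI: total growth inhibition.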

Key:
Assay in all cases: DTP human tumour cell line panel, 48 h
UO-31 renal = tested on: UO-31 renal
786-0 renal = tested on: 786-0 renal
ACHN renal = tested on: ACHN renal
CCRF-CEM leukemia = tested on: CCRF-CEM leukemia
LOX IMVI melanoma = tested on: LOX IMVI melanoma
HCT-116 colon = tested on: HCT-116 colon
HCT-15 colon = tested on: HCT-15 colon
HOP-62 NSCLC = tested on: HOP-62 NSCLC
OVCAR-3 ovarian = tested on: OVCAR-3 ovarian
CAKI-1 renal = tested on: CAKI-1 renal

Compound	TGI (UO-31 renal) [µM]	TGI (786-0 renal) [µM]	TGI (ACHN renal) [µM]	TGI (CCRF-CEM leukemia) [µM]	TGI (LOX IMVI melanoma) [µM]	TGI (HCT-116 colon) [µM]	TGI (HCT-15 colon) [µM]	TGI (HOP-62 NSCLC)	TGI (OVCAR-3 ovarian) [µM]	TGI (CAKI-1 renal) [µM]	GI50 (CCRF-CEM leukemia) [µM]	GI50 (LOX IMVI melanoma) [µM]
COC(=O)NC(Cc1ccccc1)NC(=O)OC(C)(C)C (stereo not drawn)	> 100	> 100	> 100	> 100	> 100	> 100	> 100	> 100 µM	> 100	> 100		
CCCCCCCCCCCC(=O)N(CCCCCCCCC)CC(O)C(O)C(OC1OC(CO)C(O)C(O)C1O)C(O)CO (stereo not drawn)	30.9	32.8	32.1	41	40.2	32.8	34.5	38.9 µM	40.3	35.5		
CC1(C)CCC2=C(O1)c1ccccc1C(=Nc1ccc([N+](=O)[O-])cc1)C2=O	22.4	34.1	25.5	46.7	> 100	19.9	> 100	34.1 µM	25.3	32.2	19.6	7.59
Clc1nc2nc(N3CCNCC3)nc(N3CCCC3)c2[nH]1	29.6	32.1	37.7	41	29.4	29.7	35.3	36.2 µM	33.9	> 100		
COc1ccc(NC(=O)CSC(=O)c2ccccc2)c(SCCSSCCSc2cc(OC)ccc2NC(=O)CSC(=O)c2ccccc2)c1	> 100	> 100	> 100	> 100	> 100	> 100	> 100	> 100 µM	> 100	> 100		
O/N=C1\C/C(=N\O)c2c(Br)sc(Br)c21	> 100	> 100	> 100	37.3	45.2	> 100	41.7	> 100 µM	> 100	60		
NC1(c2cc3ccccc3s2)CCCCCC1	28.1	28.8	33.4	35.4	43	29.5	36.9	27.7 µM	29.2	26.8		
COc1cc(C(c2ccccc2)N2C(=O)CC[C@H]2C(=O)O)cc(OC)c1OC (stereo partly drawn)	> 100	> 100	> 100	> 100	> 100	> 100	> 100	> 100 µM	> 100	> 100		
Cc1cnc2c(c1)C(=O)N(c1ccc(Oc3ccccc3)cc1)S2(=O)=O	> 100	> 100	> 100	> 100	> 100	> 100	> 100	> 100 µM	> 100	> 100		
CC(=O)NC1C(OCc2ccccc2)OC(CO)C(O)C1OC(C)C(=O)NC(C(=O)NC(CCC(=O)NCCCNc1ccc([N+](=O)[O-])c2[nH]c3ccccc3c(=O)c12)C(N)=O)C(C)C (stereo not drawn)	> 100	> 100	> 100	> 100	> 100	> 100	> 100	> 100 µM	> 100	> 100		
CCC[N+](C)(C)CCCNC(=O)c1c(O)c2ccccc2[nH]c1=O	> 100	> 100	> 100	> 100	> 100	> 100	> 100	> 100 µM	> 100	> 100		
CCOc1ccc2c(c1)C(/C(C(Cl)=C(Cl)Cl)=[N+](/[O-])OC(=O)c1ccccc1)=N2	> 100	> 100	> 100	> 100	> 100	> 100	> 100	> 100 µM	> 100	> 100		
COC(=O)C1=C(C)NC(C)=C(C(=O)OC)C1c1cccc(/[N+]([O-])=C/c2ccccc2)c1	> 100	31.5	31.6	44.8	> 100	30.4	44.9	> 100 µM	31.6	32.3		
COP(=O)(CP(=O)(OC)OCCC(C)CCC=C(C)C)OC (stereo not drawn)	> 100	> 100	> 100	> 100	> 100	> 100	> 100	> 100 µM	> 100	> 100		
CCCCCCc1ccc(CCCCCCCC(=O)O)o1	> 100	> 100	> 100	> 100	> 100	> 100	> 100	> 100 µM	> 100	> 100		
COc1ccc(/C(=N/O)c2ccccc2C2=Nc3ccccc3C(NCc3ccccc3)O2)cc1C (stereo not drawn)	67.5	> 100	> 100	> 100	> 100	> 100	> 100	> 100 µM	> 100	> 100		
COC1(OC)CC(CO)(COc2cc(Cl)nc(N)n2)C1	> 100	> 100	> 100	> 100	> 100	> 100	> 100	> 100 µM	> 100	> 100		
CSc1nnnc2ccccc12	> 100	> 100	> 100	> 100	> 100	> 100	> 100	> 100 µM	> 100	> 100		
O=C(O)C(Cc1ccccc1)Cc1ccccc1	> 100	> 100	> 100	> 100	> 100	> 100	> 100	> 100 µM	> 100	> 100		

Compound	TGI (UO-31 renal) [µM]	TGI (786-0 renal) [µM]	TGI (ACHN renal) [µM]	TGI (CCRF-CEM leukemia) [µM]	TGI (LOX IMVI melanoma) [µM]	TGI (HCT-116 colon) [µM]	TGI (HCT-15 colon) [µM]	TGI (HOP-62 NSCLC)	TGI (OVCAR-3 ovarian) [µM]	TGI (CAKI-1 renal) [µM]	GI50 (CCRF-CEM leukemia) [µM]	GI50 (LOX IMVI melanoma) [µM]
N#Cc1c(/C=C/c2ccccc2)c2c([nH]c1=S)CCCCC2	> 100	> 100	> 100	> 100	> 100	> 100	> 100	> 100 µM	> 100	> 100		
C1=CC2C(C3CN(c4ccccc4)N=C13)C1C3C4C=CC21C=CC43 (stereo not drawn)	> 100	> 100	> 100	> 100	> 100	> 100	> 100	> 100 µM	> 100	> 100		
COC(=O)/C1=C/C=C\C[C@@]2(C)CC(c3ccoc3)OC(=O)[C@@H]2CC[C@H]1C (stereo partly drawn)	> 25	> 25	> 25	> 25	> 25	> 25	> 25	> 25 µM	> 25	> 25		
Cc1ccc(/C=c2\c(=O)[nH]c3nc4ccccc4c(=O)n23)cc1	> 100	> 100	> 100	> 100	> 100	> 100	> 100	> 100 µM	> 100	> 100		
NS(=O)(=O)c1nnc(NS(=O)(=O)c2cccc3cccnc23)s1	> 100	> 100	> 100	> 100	> 100	> 100	> 100	> 100 µM	> 100	> 100		
O=C1C(c2ccccc2)=C(c2ccccc2)C1(Cl)Cl	13.5	7.36	7.09	3.96	4.25	2.85	4.51	41.9 µM	7.34	6.15		
CCn1c(CCCc2nc3c([nH]2)c(=O)n(C)c(=O)n3C)nc2c1c(=O)n(C)c(=O)n2C	> 100	> 100	> 100	> 100	> 100	> 100	> 100	> 100 µM	> 100	> 100		
CCOC(=O)c1nc2ccccc2nc1Nc1ccc(C(=O)OC)s1	> 100	> 100	> 100	> 100	> 100	> 100	> 100	> 100 µM	> 100	> 100		
CC1(C)C2CC3C(C)(C2)C31c1cc(Cl)ccc1N (stereo not drawn)	26.8	28.6	29	33.4	30.5	17.5	23	29.4 µM	31.2	29.1		
CN(C)C(=O)N1N[C@H](c2ccccc2)[C@@H]1c1ccccc1	> 100	> 100	> 100	> 100	> 100	> 100	> 100	> 100 µM	> 100	> 100		
CCCCCc1cc2cc3c(c(O)c2c(=O)[nH]1)C1(CCC3)C(=O)c2c(O)ccc(O)c2C1=O	> 100	> 100	> 100	> 100	> 100	> 100	> 100	> 100 µM	> 100	> 100		
NC(=Nc1ccccc1)N/N=C/c1c[nH]c2ccccc12	12.9	7.68	16.1	41	8.92	8.67	10.1	9.47 µM	0.314	22.9		
Cc1cc2nc3c(C#N)c(C)c(CCCl)c(Cl)n3c2cc1C	7.25	3.69	11.1	7.38	2.88	3.06	3.85	4.64 µM	3.56	9.43		
N#Cc1ccc(-c2ccc(Cl)cc2)n(C2OC(CO)C(O)C(O)C2O)c1=S (stereo not drawn)	> 100	> 100	> 100	> 100	> 100	> 100	> 100	> 100 µM and 36.3 µM	> 100	> 100	> 100	
c1ccc2c(c1)nnn2C1CCCCO1 (stereo not drawn)	> 100	> 100	> 100	> 100	> 100	> 100	> 100	> 100 µM	> 100	> 100		
CC(C)OC1=C(CC2(C)OCCO2)C(=O)C12OCCO2	> 100	> 100	> 100	> 100	> 100	> 100	> 100	> 100 µM	> 100	> 100		
O=C(CC(=O)N1N=C(c2ccccc2)C(N=Nc2ccc(S(=O)(=O)CCOS(=O)(=O)O)cc2)C1=O)Nc1ccc(Cl)cc1 (stereo not drawn)	> 100	> 100	> 100	> 100	> 100	> 100	> 100	> 100 µM	> 100	> 100		
CC1(C)CCCCCC(O)C(O)CCC(C)(C)C1=O (stereo not drawn)	> 100	> 100	> 100	> 100	> 100	> 100	> 100	> 100 µM	> 100	> 100		
N=C1C=CC(=C(c2ccc(N)cc2)c2ccc(N)cc2)C=C1	29.2	12.9	31.2	19.5	15.4	13.9	53.3	16.8 µM	25.2	58.1		
